Columns and labels:
Mus musculus [1] = species: Mus musculus; test: Skin irritant activity in NMRI mouse ear assessed as irritant dose 50 per ear after 24 hrs; type: ADME, organism-based; settings: in vivo
Mus musculus [2] = species: Mus musculus; test: Skin irritant activity in NMRI mouse ear assessed as irritancy after 24 hrs; type: ADME, organism-based; settings: in vivo
Mus musculus [3] = species: Mus musculus; test: Tumor promoting activity of DMBA-initiated tumor in back skin of NMRI mouse assessed as tumor rate at 20 nmol twice weekly measured after 12 weeks; type: organism-based, Zone of skin; settings: in vivo, 2016 h
Mus musculus [4] = species: Mus musculus; test: Tumor promoting activity of DMBA-initiated tumor in back skin of NMRI mouse assessed as tumor rate at 20 nmol twice weekly measured after 24 weeks; type: organism-based, Zone of skin; settings: in vivo, 4032 h
Mus musculus [5] = species: Mus musculus; test: Tumor promoting activity of DMBA-initiated tumor in back skin of NMRI mouse assessed as average tumor yeild at 20 nmol twice weekly measured after 12 weeks; type: organism-based, Zone of skin; settings: in vivo, 2016 h
Mus musculus [6] = species: Mus musculus; test: Tumor promoting activity of DMBA-initiated tumor in back skin of NMRI mouse assessed as average tumor yeild at 20 nmol twice weekly measured after 24 weeks; type: organism-based, Zone of skin; settings: in vivo, 4032 h
[7] = Tumor promoting activity of DMBA-initiated tumor in back skin of NMRI mouse assessed as survival rate at 20 nmol twice weekly measured after 24 weeks; type: organism-based, Zone of skin; settings: in vivo, topical or ocular
Mus musculus [8] = species: Mus musculus; test: Tumor promoting activity of DMBA-initiated tumor in back skin of NMRI mouse assessed as tumor rate at 5 nmol twice weekly measured after 12 weeks; type: organism-based, Zone of skin; settings: in vivo, 2016 h
Mus musculus [9] = species: Mus musculus; test: Tumor promoting activity of DMBA-initiated tumor in back skin of NMRI mouse assessed as tumor rate at 2.5 nmol twice weekly measured after 12 weeks; type: organism-based, Zone of skin; settings: in vivo, 2016 h
Mus musculus [10] = species: Mus musculus; test: Tumor promoting activity of DMBA-initiated tumor in back skin of NMRI mouse assessed as tumor rate at 5 nmol twice weekly measured after 24 weeks; type: organism-based, Zone of skin; settings: in vivo, 4032 h
Mus musculus [11] = species: Mus musculus; test: Tumor promoting activity of DMBA-initiated tumor in back skin of NMRI mouse assessed as tumor rate at 2.5 nmol twice weekly measured after 24 weeks; type: organism-based, Zone of skin; settings: in vivo, 4032 h
Mus musculus [12] = species: Mus musculus; test: Tumor promoting activity of DMBA-initiated tumor in back skin of NMRI mouse assessed as average tumor yeild at 5 nmol twice weekly measured after 12 weeks; type: organism-based, Zone of skin; settings: in vivo, 2016 h
Mus musculus [13] = species: Mus musculus; test: Tumor promoting activity of DMBA-initiated tumor in back skin of NMRI mouse assessed as average tumor yeild at 2.5 nmol twice weekly measured after 12 weeks; type: ADME, organism-based, Zone of skin; settings: in vivo, 2016 h
Mus musculus [14] = species: Mus musculus; test: Tumor promoting activity of DMBA-initiated tumor in back skin of NMRI mouse assessed as average tumor yeild at 5 nmol twice weekly measured after 24 weeks; type: organism-based, Zone of skin; settings: in vivo, 4032 h
Mus musculus [15] = species: Mus musculus; test: Tumor promoting activity of DMBA-initiated tumor in back skin of NMRI mouse assessed as average tumor yeild at 2.5 nmol twice weekly measured after 24 weeks; type: ADME, organism-based, Zone of skin; settings: in vivo, 4032 h
[16] = Tumor promoting activity of DMBA-initiated tumor in back skin of NMRI mouse assessed as survival rate at 5 nmol twice weekly measured after 24 weeks; type: organism-based, Zone of skin; settings: in vivo, topical or ocular
[17] = Tumor promoting activity of DMBA-initiated tumor in back skin of NMRI mouse assessed as survival rate at 2.5 nmol twice weekly measured after 24 weeks; type: organism-based, Zone of skin; settings: in vivo, topical or ocular
Mus musculus [18] = species: Mus musculus; test: Tumor promoting activity of DMBA-initiated tumor in back skin of NMRI mouse assessed as tumor rate at 10 nmol twice weekly measured after 12 weeks; type: organism-based, Zone of skin; settings: in vivo, 2016 h
Mus musculus [19] = species: Mus musculus; test: Tumor promoting activity of DMBA-initiated tumor in back skin of NMRI mouse assessed as tumor rate at 10 nmol twice weekly measured after 24 weeks; type: organism-based, Zone of skin; settings: in vivo, 4032 h
Mus musculus [20] = species: Mus musculus; test: Tumor promoting activity of DMBA-initiated tumor in back skin of NMRI mouse assessed as average tumor yeild at 10 nmol twice weekly measured after 12 weeks; type: organism-based, Zone of skin; settings: in vivo, 2016 h
Mus musculus [21] = species: Mus musculus; test: Tumor promoting activity of DMBA-initiated tumor in back skin of NMRI mouse assessed as average tumor yeild at 10 nmol twice weekly measured after 24 weeks; type: organism-based, Zone of skin; settings: in vivo, 4032 h
[22] = Tumor promoting activity of DMBA-initiated tumor in back skin of NMRI mouse assessed as survival rate at 10 nmol twice weekly measured after 24 weeks; type: organism-based, Zone of skin; settings: in vivo, topical or ocular

## C=C(C)[C@]12C[C@@H](C)[C@@]34O[C@](/C=C\C=C\CCCCCCCCCC)(O[C@@H]1[C@@H]3[C@@H]1O[C@]1(CO)[C@@H](O)[C@]1(O)C(=O)C(C)=C[C@H]14)O2
Mus musculus [1]
  Activity: 0.02 nmol
Mus musculus [2]
  Activity: 50 nmol⁻¹

## C=C(C)[C@]12O[C@@]3(/C=C/C=C/C=C\CCC)O[C@@H]1[C@@H]1[C@@H]4O[C@]4(CO)[C@@H](O)[C@]4(O)C(=O)C(C)=C[C@H]4[C@@]1(O3)[C@H](C)[C@H]2OC(C)=O
Mus musculus [1]
  Activity: 1.1 nmol
Mus musculus [2]
  Activity: 0.91 nmol⁻¹
Mus musculus [3]
  Activity: 0%
Mus musculus [4]
  Activity: 0%
Mus musculus [5]
  Activity: 0
Mus musculus [6]
  Activity: 0
[7]
  survival at 4032 h: 100%

## C=C(C)[C@@]1(O)C[C@@H](C)[C@@]2(O)[C@H]([C@H]1OC(=O)/C=C/CCCCCCCCCCCCC)[C@@H]1O[C@]1(COC(=O)CCCCCCCCCCCCCCC)[C@@H](O)[C@]1(O)C(=O)C(C)=C[C@H]12
Mus musculus [1]
  Activity: 20 nmol
Mus musculus [2]
  Activity: 0.15 nmol⁻¹

## C=C(C)[C@@]1(OC(=O)/C=C/CCCCCCCCCCCCC)C[C@@H](C)[C@@]2(O)[C@H]([C@H]1O)[C@@H]1O[C@]1(CO)[C@@H](O)[C@]1(O)C(=O)C(C)=C[C@H]12
Mus musculus [1]
  Activity: 0.08 nmol
Mus musculus [2]
  Activity: 13 nmol⁻¹

## C=C(C)[C@]12C[C@@H](C)[C@@]34O[C@](/C=C\C=C\CCCCC)(O[C@@H]1[C@@H]3[C@@H]1O[C@]1(CO)[C@@H](O)[C@]1(O)C(=O)C(C)=C[C@H]14)O2
Mus musculus [1]
  Activity: 0.15 nmol
Mus musculus [2]
  Activity: 6.7 nmol⁻¹

## C=C(C)[C@]12O[C@@]34/C=C/CCCCCCCCCCC[C@H](C)[C@H]5[C@H](C)C(=O)[C@@]6(O)[C@H](O)[C@@]7(CO)O[C@H]7[C@@H]([C@H]1O3)[C@](O4)([C@H](C)[C@H]2OC(C)=O)[C@H]56
Mus musculus [1]
  Activity: 0.01 nmol
Mus musculus [2]
  Activity: 100 nmol⁻¹
Mus musculus [8]
  Activity: 33%
Mus musculus [9]
  Activity: 0%
Mus musculus [10]
  Activity: 100%
Mus musculus [11]
  Activity: 27%
Mus musculus [12]
  Activity: 0.33
Mus musculus [13]
  Activity: 0
Mus musculus [14]
  Activity: 4.4
Mus musculus [15]
  Activity: 0.6
[16]
  survival at 4032 h: 99%
[17]
  survival at 4032 h: 94%

## C=C(C)[C@@]1(O)C[C@@H](C)[C@@]2(O)[C@H]([C@H]1OC(=O)/C=C/CCCCCCCCCCCCC)[C@@H]1O[C@]1(CO)[C@@H](O)[C@]1(O)C(=O)C(C)=C[C@H]12
Mus musculus [1]
  Activity: 0.035 nmol
Mus musculus [2]
  Activity: 29 nmol⁻¹

## C=C(C)[C@]12C[C@@H](C)[C@@]34O[C@](/C=C/CCCCCCCCCCCCC)(O[C@@H]1[C@@H]3[C@@H]1O[C@]1(COC(=O)CCCCCCCCCCCCCCC)[C@@H](O)[C@]1(O)C(=O)C(C)=C[C@H]14)O2
Mus musculus [1]
  Activity: 0.16 nmol
Mus musculus [2]
  Activity: 6.3 nmol⁻¹

## C=C(C)[C@]12O[C@@]3(/C=C/C=C/CCCCCCCCC)O[C@@H]1[C@@H]1[C@@H]4O[C@]4(CO)[C@@H](O)[C@]4(O)C(=O)C(C)=C[C@H]4[C@@]1(O3)[C@H](C)[C@H]2OC(C)=O
Mus musculus [1]
  Activity: 0.03 nmol
Mus musculus [2]
  Activity: 33 nmol⁻¹

## C=C(C)[C@]12C[C@@H](C)[C@@]34O[C@](/C=C/CCCCCCCCCCCCC)(O[C@@H]1[C@@H]3[C@@H]1O[C@]1(CO)[C@@H](O)[C@]1(O)C(=O)C(C)=C[C@H]14)O2
Mus musculus [1]
  Activity: 0.02 nmol
Mus musculus [2]
  Activity: 50 nmol⁻¹
Mus musculus [18]
  Activity: 94%
Mus musculus [8]
  Activity: 6%
Mus musculus [19]
  Activity: 100%
Mus musculus [10]
  Activity: 69%
Mus musculus [20]
  Activity: 4.7
Mus musculus [12]
  Activity: 0.13
Mus musculus [21]
  Activity: 9.7
Mus musculus [14]
  Activity: 2.9
[22]
  survival at 4032 h: 94%
[16]
  survival at 4032 h: 100%

## C=C(C)[C@]12C[C@@H](C)[C@@]34O[C@](CCCCCCCCCCCCCCC)(O[C@@H]1[C@@H]3[C@@H]1O[C@]1(CO)[C@@H](O)[C@]1(O)C(=O)C(C)=C[C@H]14)O2
Mus musculus [1]
  Activity: 0.04 nmol
Mus musculus [2]
  Activity: 25 nmol⁻¹

## C=C(C)[C@]12O[C@@]3(/C=C/C=C/CCCCC)O[C@@H]1[C@@H]1[C@@H]4O[C@]4(CO)[C@@H](O)[C@]4(O)C(=O)C(C)=C[C@H]4[C@@]1(O3)[C@H](C)[C@H]2O
Mus musculus [1]
  Activity: 0.92 nmol
Mus musculus [2]
  Activity: 1.1 nmol⁻¹

## C=C(C)[C@@]12C[C@@H](C)[C@@]34O[C@@]5(/C=C/CCCCCCCCCCCC(C)[C@H]6[C@H](C)C(=O)[C@@](O)([C@H](O)[C@@]7(COC(=O)CCCCCCCCCCCCCCC)O[C@H]7[C@H]3[C@H]1O5)[C@@H]64)O2 (stereo partly specified)
Mus musculus [1]
  Activity: 0.019 nmol
Mus musculus [2]
  Activity: 53 nmol⁻¹

## C=C(C)[C@]12O[C@@]3(/C=C/C=C/CCCCC)O[C@@H]1[C@@H]1[C@@H]4O[C@]4(CO)[C@@H](O)[C@]4(O)C(=O)C(C)=C[C@H]4[C@@]1(O3)[C@H](C)[C@H]2OC(C)=O
Mus musculus [1]
  Activity: 0.27 nmol
Mus musculus [2]
  Activity: 3.7 nmol⁻¹
Mus musculus [3]
  Activity: 0%
Mus musculus [4]
  Activity: 14%
Mus musculus [5]
  Activity: 0
Mus musculus [6]
  Activity: 0.36
[7]
  survival at 4032 h: 88%

## C=C(C)[C@]12O[C@@]3(/C=C/C=C/C=C\CCC)O[C@@H]1[C@@H]1[C@@H]4O[C@]4(CO)[C@@H](O)[C@]4(O)C(=O)C(C)=C[C@H]4[C@@]1(O3)[C@H](C)[C@H]2O
Mus musculus [1]
  Activity: 0.81 nmol
Mus musculus [2]
  Activity: 1.2 nmol⁻¹

## C=C(C)[C@]12O[C@@]34/C=C/CCCCCCCCCCCC(C)[C@H]5[C@H](C)C(=O)[C@@]6(O)[C@H](O)[C@@]7(CO)O[C@H]7[C@@H]([C@H]1O3)[C@](O4)([C@H](C)[C@H]2O)[C@H]56 (stereo partly specified)
Mus musculus [1]
  Activity: 0.0015 nmol
Mus musculus [2]
  Activity: 667 nmol⁻¹
Mus musculus [8]
  Activity: 60%
Mus musculus [9]
  Activity: 6.7%
Mus musculus [10]
  Activity: 86%
Mus musculus [11]
  Activity: 87%
Mus musculus [12]
  Activity: 1.3
Mus musculus [13]
  Activity: 0.33
Mus musculus [14]
  Activity: 2.7
Mus musculus [15]
  Activity: 2.9
[16]
  survival at 4032 h: 94%
[17]
  survival at 4032 h: 100%

## C=C(C)[C@@]12C[C@@H](C)[C@@]34O[C@@]5(/C=C/CCCCCCCCCCCC(C)(O)[C@H]6[C@H](C)C(=O)[C@@](O)([C@H](O)[C@@]7(CO)O[C@H]7[C@H]3[C@H]1O5)[C@@H]64)O2 (stereo partly specified)
Mus musculus [1]
  Activity: 0.016 nmol
Mus musculus [2]
  Activity: 6 nmol⁻¹

## C=C(C)[C@]12C[C@@H](C)[C@@]34O[C@](CCCCCCCCC)(O[C@@H]1[C@@H]3[C@@H]1O[C@]1(CO)[C@@H](O)[C@]1(O)C(=O)C(C)=C[C@H]14)O2 [SIMPLEXIN]
Mus musculus [1]
  Activity: 0.013 nmol
Mus musculus [2]
  Activity: 77 nmol⁻¹
Mus musculus [3]
  Activity: 20%
Mus musculus [18]
  Activity: 4%
Mus musculus [4]
  Activity: 71%
Mus musculus [19]
  Activity: 54%
Mus musculus [5]
  Activity: 0.6
Mus musculus [20]
  Activity: 0.2
Mus musculus [6]
  Activity: 3
Mus musculus [21]
  Activity: 1.7
[7]
  survival at 4032 h: 100%
[22]
  survival at 4032 h: 93%
